Assay results from article PMC5126104, “Identification of a Chemoreceptor in Pseudomonas aeruginosa That Specifically Mediates Chemotaxis Toward α-Ketoglutarate” (Frontiers in Microbiology, 2016).

B1: McpK ligand binding domain (McpK-LBD) (domain or fragment, Pseudomonas aeruginosa PAO1, UniProt Q9HUB1 38-293, looked up)
chain: RTLTHQTALSEQLAEVASLMEQTQQAEQGRLAFEAGSDPRQAEQVRQTLAGMLQRLQALRDSELDPAALAHQVEAIEAYRKAFDDLAAADQQRSAARGVLVGTAQQALDSFARLEELMDASLAQQAGDPQALQRSRAVADLHQQLLMVRYQVRGYVFERSDKAEQAAFAAFDALRQAATTLRGQLPGEADAALEQAMGSLQGYRGGIEQFRAGVIRTRQAQQAMQSSTQDMARAGRTLTEAGRQLRESTASRDRAS
notes: No removal of the tag is described; In monomer-dimer equilibrium by AUC; also called PA5072-LBD; source: E. coli BL21 (DE3), pET28-McpK-LBD, purified (HisTrap column)

Experiments:
[1] = biological target: T1, McpK (PA5072) chemoreceptor ligand binding domain (Pseudomonas aeruginosa, UniProt Q9HUB1); design: thermal shift assay with SYPRO Orange, Tm change of recombinant McpK-LBD; settings: binder
T1 construct: McpK-LBD, Arg38–Ser293
Procedure: Thermal shift assays were performed using a BioRad MyIQ2 Real-Time PCR instrument. Ligands were prepared by dissolving Biolog Phenotype Microarray compounds in 50 μl of MilliQ water to obtain a final concentration of around 10–20 mM (as indicated by the manufacturer). Screening was performed with plates PM1, PM2A, PM3B, PM4A, and PM5. Each plate contains 95 compounds and a control (Supplementary Figure S1). Each 25 μl assay mixture contained 40 μM protein in 5 mM Tris, 5 mM Pipes, 5 mM Mes, pH8.0 and SYPRO orange (Life Technologies) at 5x concentration. Aliquots of 2.5 μl of the resuspended Biolog compounds were added to each well. Samples were heated from 23°C to 85°C at a scan rate of 1°C/min. The protein unfolding curves were monitored by detecting changes in SYPRO Orange fluorescence. Melting temperatures were determined using the first derivative values from the raw fluorescence data. […] Ligands tested included different bacterial carbon-, nitrogen-, phosphorous-, and sulfur sources as well as to nutrient supplements, which are listed in Supplementary Figure S1. A total of 13 compounds were identified that increased or decreased the Tm by at least 2°C (Supplementary Table S2), which is the generally accepted threshold for a relevant ligand-induced change in protein stability.

[2] = biological target: T1, McpK (PA5072) chemoreceptor ligand binding domain; test: ITC (two symmetric-site cooperative model; Kd1 =[…], Kd2 =[…]); supported by thermal shift (+[…]°C) and AUC dimer stabilization
[3] = biological target: the molecule itself; test: AUC; sedimentation velocity, McpK-LBD (10-50 uM) with 1 mM alpha-ketoglutarate, 7 °C, 5 mM Tris, 5 mM PIPES, 5 mM MES, pH 8.0; c(s) analysis in SEDFIT
[4] = biological target: the molecule itself; test: AUC; sedimentation equilibrium, multi-speed, ligand-free McpK-LBD at 40, 50 and 60 uM, 7 °C, dialysis buffer (5 mM Tris, 5 mM PIPES, 5 mM MES, pH 8.0); global fit in SEDPHAT; dimer to monomers
[5] = biological target: the molecule itself; test: AUC; sedimentation equilibrium, multi-speed, McpK-LBD at 40, 50 and 60 uM with 1 mM alpha-ketoglutarate, 7 °C, dialysis buffer (5 mM Tris, 5 mM PIPES, 5 mM MES, pH 8.0); global fit in SEDPHAT; dimer to monomers

Molecule | Tm Shift (°C) [1] | other results
O=C(O)CCC(=O)O [Succinate] | -0.3 °C | –
O=C(O)CC(O)(CC(=O)O)C(=O)O [Citrate] | +0.8 °C | –
O=C(O)CC(O)C(=O)O (stereo not drawn) [Malate] | +0.5 °C | –
NC(=O)CC[C@H](N)C(=O)O [L-Glutamine] | +2.2 °C | –
N[C@@H](C(=O)O)[C@@H](O)[C@H](O)[C@H](O)CO [D-Glucosaminic acid] | +3.5 °C | –
N[C@@H](CCC(=O)O)C(=O)O [L-Glutamic acid] | +2.3 °C | –
O=C(O)CC(CC(=O)O)C(=O)O [Tricarballylate] | +0.3 °C | –
NC(=O)OP(=O)(O)O [Carbamyl phosphate] | +3.5 °C | –
O=C(O)[C@H]1OC(O)[C@H](O)[C@@H](O)[C@H]1O (stereo partly drawn) [D-Galacturonic acid] | +2.3 °C | –
C=C(CC(=O)O)C(=O)O [Itaconate] | -2.2 °C | –
CC(O)C(=O)O (stereo not drawn) [Lactate] | +0.2 °C | –
O=C(O)CCC(=O)C(=O)O [α-ketoglutarate] | +5.2 °C | Kd [2]: 80.9 µM
O=C1O[C@@H]([C@H](O)CO)[C@H](O)[C@H]1O [D-Galactonic acid-γ-lactone] | +2 °C | –
O=C(O)CC(=O)C(=O)O [Oxaloacetate] | +0 °C | –
NCCCC(=O)O [γ-Aminobutyric acid] | +4.1 °C | –
O=C(O)/C=C/C(=O)O [Fumarate] | +0.3 °C | –
CC(=O)C(=O)O [Pyruvate] | +0.1 °C | –
CC(=O)O [Acetate] | -0.2 °C | –
NCCCCC(=O)O [5-Aminovaleric acid] | +3.9 °C | –
NCCc1ccccc1 [Phenylethylamine] | +3.5 °C | –
COC(=O)C(C)=O [Methyl pyruvate] | +3.3 °C | –
CCCC(=O)O [Butyrate] | +0.7 °C | –
O=c1cc[nH]c(=O)[nH]1 [Uracil] | +4.2 °C | –
B1 | – | stoichiometry N [3]: 2; Kd [4]: 55 µM; Kd [5]: 5.9 µM
